Like-named read-outs stand apart in the source and are kept apart here.
What was measured:
[1] = biological target: T1, Human recombinant PDE2A (hPDE2A) (Homo sapiens, UniProt O00408); assay: In vitro assay PDE2A (SPA, 3H-cGMP); format: biochemical; conditions: read-out: pIC50 PDE2 (converted)
T1 construct: made in house; host or cells: Sf9 insect cells (baculovirus)

[2] = biological target: T2, Rat recombinant PDE10A (rPDE10A2) (Rattus norvegicus, UniProt Q9QYJ6); assay: In vitro assay PDE10A (SPA, 3H-cAMP); format: biochemical; conditions: read-out: PIC50 PDE10 (converted)
T2 construct: made in house; host or cells: Sf9 insect cells (baculovirus)
T2 sequence (Q9QYJ6 1-794): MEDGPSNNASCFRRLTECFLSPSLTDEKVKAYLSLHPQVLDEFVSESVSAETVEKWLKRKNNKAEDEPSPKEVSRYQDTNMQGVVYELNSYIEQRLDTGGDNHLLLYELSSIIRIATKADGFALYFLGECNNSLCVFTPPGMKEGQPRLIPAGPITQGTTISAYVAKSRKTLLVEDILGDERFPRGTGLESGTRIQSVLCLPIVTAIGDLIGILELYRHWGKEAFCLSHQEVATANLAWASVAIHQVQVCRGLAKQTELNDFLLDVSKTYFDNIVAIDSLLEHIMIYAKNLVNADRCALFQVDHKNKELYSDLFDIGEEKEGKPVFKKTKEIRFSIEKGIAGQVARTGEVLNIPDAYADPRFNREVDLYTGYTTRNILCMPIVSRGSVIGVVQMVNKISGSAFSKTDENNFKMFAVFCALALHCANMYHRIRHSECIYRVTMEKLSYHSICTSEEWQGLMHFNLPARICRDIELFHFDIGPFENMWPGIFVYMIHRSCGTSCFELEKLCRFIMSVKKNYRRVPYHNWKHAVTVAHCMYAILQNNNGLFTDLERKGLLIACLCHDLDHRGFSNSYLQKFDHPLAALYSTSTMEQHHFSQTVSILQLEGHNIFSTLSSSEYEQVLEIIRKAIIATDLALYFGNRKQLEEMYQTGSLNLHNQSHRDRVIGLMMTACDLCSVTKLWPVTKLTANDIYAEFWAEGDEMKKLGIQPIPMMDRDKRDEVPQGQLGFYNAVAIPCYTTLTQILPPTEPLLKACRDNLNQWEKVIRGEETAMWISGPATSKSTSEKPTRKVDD

[3] = test system: Apomorphine-induced agitation; assay: Reversal of Apomorphine-induced Agitation in Rats (APO); format: in vivo, rat; conditions: for PO Max effect (cumulative agitation score over 60 min) / SC Max effect (cumulative agitation score over 60 min): apomorphine 1.0 mg/kg i.v.; for PO LAD (lowest active dose) / SC LAD (lowest active dose): lowest dose at which ≥67% tested animals respond; for SC Dose at max effect / SC Max effect (cumulative agitation score over 60 min) / SC LAD (lowest active dose): subcutaneous route
Description: Apomorphine (1.0 mg/kg, i.v.)-induced agitation was scored every 5 min over the first hour after injection of apomorphine. The score system was: (3) pronounced, (2) moderate, (1) slight, and (0) absent. […] For the present purpose, the cumulative agitation score over the whole 60-min observation period was used as a measure to describe the maximum effect (Max effect).

T1 sequence (O00408 whole entry): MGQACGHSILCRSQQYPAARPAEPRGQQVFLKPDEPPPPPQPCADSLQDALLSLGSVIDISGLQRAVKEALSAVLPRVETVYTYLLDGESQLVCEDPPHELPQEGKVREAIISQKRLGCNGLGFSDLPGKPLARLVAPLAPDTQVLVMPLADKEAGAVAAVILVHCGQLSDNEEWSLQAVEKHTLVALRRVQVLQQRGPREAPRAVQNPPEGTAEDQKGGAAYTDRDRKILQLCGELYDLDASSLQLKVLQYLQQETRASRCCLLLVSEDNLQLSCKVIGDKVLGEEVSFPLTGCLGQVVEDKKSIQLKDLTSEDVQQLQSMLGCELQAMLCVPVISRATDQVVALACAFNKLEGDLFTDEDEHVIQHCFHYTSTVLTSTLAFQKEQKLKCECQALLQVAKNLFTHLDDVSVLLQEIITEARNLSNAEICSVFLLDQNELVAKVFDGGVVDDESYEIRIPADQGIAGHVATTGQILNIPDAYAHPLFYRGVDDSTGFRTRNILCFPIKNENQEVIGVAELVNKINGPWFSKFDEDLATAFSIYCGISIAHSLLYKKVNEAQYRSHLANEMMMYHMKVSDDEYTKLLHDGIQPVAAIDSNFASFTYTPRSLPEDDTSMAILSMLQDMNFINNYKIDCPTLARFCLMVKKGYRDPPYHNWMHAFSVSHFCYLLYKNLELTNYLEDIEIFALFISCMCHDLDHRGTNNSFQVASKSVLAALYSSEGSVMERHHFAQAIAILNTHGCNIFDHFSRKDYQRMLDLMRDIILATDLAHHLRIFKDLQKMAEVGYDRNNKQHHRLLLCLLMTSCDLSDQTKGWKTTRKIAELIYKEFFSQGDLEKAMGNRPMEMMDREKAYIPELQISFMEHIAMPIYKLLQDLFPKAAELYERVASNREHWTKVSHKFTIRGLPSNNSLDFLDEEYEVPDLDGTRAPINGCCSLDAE

Molecule `Cc1nc2ccc(C(=O)NCCc3ccccc3)cc2n2c(-c3ccccc3)nnc12` [Compound B-54] has an IC50 [1] of 3.47 nM, an IC50 [2] of 93.3 nM and a PO Dose at Max Effect [3] of 2.5 mg/kg. For the same molecule, the “PO Max effect (cumulative agitation score over 60 min)” value [3] was 22 and the PO LAD (lowest active dose) [3] was > 2.5 mg/kg.

For `Cc1nc2ccc(C(=O)N(C)Cc3ccccc3)cc2n2c(-c3ccccc3)nnc12` [Compound B-104], the IC50 [1] was 19.1 nM, the IC50 [2] was 204 nM and the SC Dose at max effect [3] was 2.5 mg/kg. The “SC Max effect (cumulative agitation score over 60 min)” value [3] was 21 and the SC LAD (lowest active dose) [3] was > 2.5 mg/kg.

With `Cc1nc2ccc(CN3CCOC(F)(C(F)(F)F)C3)cc2n2c(-c3ccccc3Cl)nnc12` (centres unmarked) [Compound B-114] the IC50 [1] was 24.5 nM, the IC50 [2] was 105 nM and the PO Dose at Max Effect [3] was 10 mg/kg. The “PO Max effect (cumulative agitation score over 60 min)” value [3] was 24 and the PO LAD (lowest active dose) [3] was > 10 mg/kg.

With `Cc1nc2ccc(OC(F)(F)F)cc2n2c(-c3ccccc3Cl)nnc12` [Compound B-4a, 1-(2-Chlorophenyl)-4-methyl-8-(trifluoromethoxy)[1,2,4]triazolo[4,3-a]quinoxaline] the IC50 [1] was 8.32 nM, the IC50 [2] was 24.5 nM and the PO Dose at Max Effect [3] was 10 mg/kg. For the same molecule, the “PO Max effect (cumulative agitation score over 60 min)” value [3] was 21 and the PO LAD (lowest active dose) [3] was > 10 mg/kg.

`COc1ccc(Cl)c(-c2nnc3c(C)nc4ccc(C(=O)NCc5ccccn5)cc4n23)c1` [Compound B-43] was tested, and the IC50 [1] was 1.62 nM, the IC50 [2] was 43.7 nM and the PO Dose at Max Effect [3] was 10 mg/kg. For the same molecule, the “PO Max effect (cumulative agitation score over 60 min)” value [3] was 19 and the PO LAD (lowest active dose) [3] was 10 mg/kg.

With `Cc1nc2ccc(C(=O)NCCCc3ccccc3)cc2n2c(-c3ccccc3)nnc12` [Compound B-77] the IC50 [1] was 7.41 nM, the IC50 [2] was 77.6 nM and the PO Dose at Max Effect [3] was 2.5 mg/kg. The “PO Max effect (cumulative agitation score over 60 min)” value [3] was 21 and the PO LAD (lowest active dose) [3] was > 2.5 mg/kg.

`Cc1nc2ccc(C(=O)NCCO)cc2n2c(-c3ccccc3Cl)nnc12` [Compound B-42] gave an IC50 [1] of 1.51 nM, an IC50 [2] of 29.5 nM and a PO Dose at Max Effect [3] of 10 mg/kg. The “PO Max effect (cumulative agitation score over 60 min)” value [3] was 22 and the PO LAD (lowest active dose) [3] was > 10 mg/kg.

`Cc1nc2ccc(OCCc3ccccn3)cc2n2c(-c3ccccc3Cl)nnc12` [Compound B-15, 1-(2-Chlorophenyl)-4-methyl-8-(2-pyridin-2-ylethoxy) [1,2,4]triazolo[4,3-a]quinoxaline] was tested, and the IC50 [1] was 8.71 nM, the IC50 [2] was 16.2 nM and the SC Dose at max effect [3] was 10 mg/kg. The “SC Max effect (cumulative agitation score over 60 min)” value [3] was 10 and the SC LAD (lowest active dose) [3] was 2.5 mg/kg.

Work on `Cc1nc2ccc(CN3CCN(C)CC3)cc2n2c(-c3ccccc3Cl)nnc12` [Compound B-73] yielded an IC50 [1] of 6.76 nM, an IC50 ([2]; -log IC50 expressed in mol/L, rPDE10A2, 60 nM cAMP) of 67.6 nM and an SC Dose at max effect [3] of 10 mg/kg. The “SC Max effect (cumulative agitation score over 60 min)” value [3] was 19 and the SC LAD (lowest active dose) [3] was 10 mg/kg.

`Cc1ncccc1-c1nnc2c(C)nc3ccc(OC(F)(F)F)cc3n12` [Compound B-168] showed an IC50 [1] of 97.7 nM, an IC50 [2] of 174 nM and a PO Dose at Max Effect [3] of 10 mg/kg. The “PO Max effect (cumulative agitation score over 60 min)” value [3] was 16 and the PO LAD (lowest active dose) [3] was 10 mg/kg.

In the case of `Cc1nc2ccc(CNc3cccnc3)cc2n2c(-c3ccccc3Cl)nnc12` [Compound B-50], the IC50 [1] is reported as 2.34 nM, the IC50 [2] is reported as 11 nM and the SC Dose at max effect [3] is reported as 10 mg/kg. The “SC Max effect (cumulative agitation score over 60 min)” value [3] was 22 and the SC LAD (lowest active dose) [3] was > 10 mg/kg.

With `Cc1nc2ccc(CN3CCC(F)CC3)cc2n2c(-c3ccccc3Cl)nnc12` [Compound B-61] the IC50 [1] was 5.5 nM, the IC50 [2] was 20 nM and the SC Dose at max effect [3] was 10 mg/kg. The “SC Max effect (cumulative agitation score over 60 min)” value [3] was 15 and the SC LAD (lowest active dose) [3] was 10 mg/kg.

In the case of `Cc1nc2ccc(CN3CCOC(CCO)C3)cc2n2c(-c3ccccc3Cl)nnc12` (centres unmarked) [Compound B-63], the IC50 [1] is reported as 5.62 nM, the IC50 [2] is reported as 9.33 nM and the SC Dose at max effect [3] is reported as 10 mg/kg. The “SC Max effect (cumulative agitation score over 60 min)” value [3] was 19 and the SC LAD (lowest active dose) [3] was 10 mg/kg.

From US10604523B2, “1-aryl-4-methyl-[1,2,4]triazolo[4,3-a]quinoxaline derivatives” (Janssen Pharmaceutica NV, priority 2011, dated 2020)
